{"source": "patent US5484803A", "about": "“Transcutaneous in vivo activation of photosensitive agents in blood” (priority 1995, dated 1996)", "key": {"[1]": {"test_system": "mouse blood", "assay": "Blood cell morphology 2 weeks post-treatment", "assay_type": "in vivo, Balb/c mice", "procedure": "Blood Tests: Blood was drawn into syringes containing 50 μl of heparin (1000 units/ml saline). Blood samples (0.45 ml) from at least 1 mouse per time point were sent to the Diagnostic Laboratory at the University Hospital, University of British Columbia site, for analysis by a Coulter Counter. Blood morphology was determined on blood films prepared from selected samples by a laboratory technologist.\n(§1) Six Balb/c mice (22±1 g weight) were prepared as described above. Five mice were injected twice (24 hour interval) with BPD from DMSO stock (not liposomal BPD) and exposed to light 1 hour after the injection. One mouse was not injected but was exposed to light (light-only control). During the first treatment the mice were injected with 15 μg BPD/mouse in 200 μl of PBS. During the second treatment the mice were injected with 20 μg BPD/mouse (0.9 mg/kg). A single mouse was used as a control for both treatments.\n(§2) Immediately post-injection (on both occasions) the animals were kept for 1 hour in the dark and then were placed in individual plastic containers (9×4×5 cm), which were placed in the light box and exposed to light. The individual mice were removed from the light box at different intervals: 15, 30, 45, 60 and 75 min, respectively. The light doses delivered at the surface of the skin were 27, 54, 81, 108 and 135 J/cm^2, respectively. On the second occasion the same light doses were used; however, mice receiving higher light doses on day 1 received lower doses on day 2. The control mouse was exposed to light for 60 min on both occasions. During light exposure, the mice were constantly observed for signs of discomfort or itching. After the second light exposure, the mice were observed daily for a period of 2 weeks for appearance of the skin and general pattern of behavior.\n(§3) Two weeks post-treatment blood samples were obtained from each mouse by a heart puncture, under halothane anesthesia. Then the mice were sacrificed and autopsied. Their spleen, liver and kidneys were weighed."}, "[2]": {"assay": "Body and organ weights and gross autopsy two weeks post-treatment", "assay_type": "in vivo, Balb/c mice", "procedure": "as §1, §2, §3"}, "[3]": {"test_system": "mice skin", "assay": "Skin photosensitivity tests (skin and behaviour after double treatment)", "assay_type": "in vivo, Balb/c mice", "excerpt": "Male Balb/c mice (7-11 weeks old; Charles River, Canada) were used in these studies, unless otherwise specified. Balb/c mice were chosen for the studies because of the lack of pigment in their skin. Shaving and depilation removed the hair very effectively from the entire body except the head. Then, the mouse skin appeared quite transparent. Internal organs, especially dark red organs such as liver and spleen, were visible through the skin. The mice were shaved and depilated with a commercially available depilator (Neet® or Nair®) 5 days before being used in the experiments. Control mice, injected with BPD but not exposed to light, were not shaved. Following injection the mice were kept in the dark for various lengths of time, as described below. Before and after the experiments the mice were kept in an animal facility with 12 hours of light and 12 hours of dark daily. After the experiments, in order to reduce the amount of light reaching the mice, their cages were placed on the lowest shelf with aluminum foil placed above them.\nThe light box was custom built at a workshop at the University of British Columbia. It was composed of two layers of 14 75 W tungsten-halogen reflector bulbs (General Electric), which illuminated the treatment area from the top and from the bottom. Light was filtered by 1) a set of filters comprising yellow and red plastic films which absorbed most of the light at wavelengths shorter than 600 nm and 2) 15 mm thick water filters which absorbed light above 900 nm. Cooling was provided by a steady flow of cold water in the water filters and by a set of 5 fans. The light intensity was measured by an IL 1350 Photometer (International Light).\nThe intensity of light delivered by the top and bottom sets of bulbs was not uniform. The bottom set delivered 33-40 mW/cm^2 as measured at floor level of the exposure chamber, while the top set delivered 27-33 mW/cm^2 as measured at the skin surface of the backs of the animals. The range described resulted from inconsistent influence at the horizontal plane of irradiation. In addition, mice moved about during light exposure, so that at various times different parts of their skin received different amounts of light. Therefore, the doses delivered to the surface of mice skin must be approximated and the calculations have been based on an intensity of 30 mW/cm^2.\nas §1\nas §2, with “During light exposure, the mice were constantly observed for signs of discomfort or itching. After the second light exposure, the mice were observed daily for a period of 2 weeks for appearance of the skin and general pattern of behavior.” left out"}, "[4]": {"test_system": "Red blood cells", "settings": "after the virucidal treatment; cited from earlier work"}, "[5]": {"test_system": "L1210 cells", "assay": "Surviving clonogenic L1210 cells in mouse blood", "assay_type": "in vivo, Balb/c mice", "settings": "for Surviving cells in blood: average of 3 mice/group", "procedure": "Male mature DBA/2 and Balb/c mice were injected intravenously with P815 and L1210 cells, respectively, preincubated for 1 hour with BPD (liposomal) at 100 ng/ml. Immediately before animal injection, an additional 2 μg of BPD was added to the syringes containing cells. […] One group of mice (shaved and depilated) was exposed immediately to red light (600-900 nm) in the light box for 1.5 hours (162 J/cm^2); the other group was kept in the dark as the control.\nImmediately after exposure to light, blood samples were obtained by a heart puncture under halothane anesthesia. The concentration of BPD in plasma of light-exposed and control mice was determined by fluorescence. The number of clonogenic tumor cells in mouse blood was determined by culturing blood samples in culture medium supplemented with 10% bovine serum, using a limiting dilution assay protocol."}, "[6]": {"settings": "Drug + Light, individual mice, 2 weeks post-treatment"}}, "note": "Where “and” joins values, the source holds several entries; their conditions need not be identical. Identical values can stand only once."}
{"substance": "benzoprophyrin derivative monoacid ring A [BPD]", "values": [{"measurement": "Monocytes", "setting": "[1]; mouse 1, light 27 then 135 J/cm^2", "value": 1, "unit": "% WBC"}, {"measurement": "Granulocytes", "setting": "[1]; mouse 1, light 27 then 135 J/cm^2, normal 12-15", "value": 9, "unit": "% WBC"}, {"measurement": "Lymphocytes", "setting": "[1]; mouse 1, light 27 then 135 J/cm^2, normal 65-85", "value": 90, "unit": "% WBC"}, {"measurement": "Monocytes", "setting": "[1]; mouse 2, light 54 then 108 J/cm^2", "value": 1, "unit": "% WBC"}, {"measurement": "Granulocytes", "setting": "[1]; mouse 2, light 54 then 108 J/cm^2, normal 12-15", "value": 11, "unit": "% WBC"}, {"measurement": "Lymphocytes", "setting": "[1]; mouse 2, light 54 then 108 J/cm^2, normal 65-85", "value": 88, "unit": "% WBC"}, {"measurement": "Monocytes", "setting": "[1]; mouse 3, light 81 then 81 J/cm^2", "value": 3, "unit": "% WBC"}, {"measurement": "Granulocytes", "setting": "[1]; mouse 3, light 81 then 81 J/cm^2, normal 12-15", "value": 19, "unit": "% WBC"}, {"measurement": "Lymphocytes", "setting": "[1]; mouse 3, light 81 then 81 J/cm^2, normal 65-85", "value": 78, "unit": "% WBC"}, {"measurement": "Monocytes", "setting": "[1]; mouse 4, light 108 then 54 J/cm^2", "value": 2, "unit": "% WBC"}, {"measurement": "Granulocytes", "setting": "[1]; mouse 4, light 108 then 54 J/cm^2, normal 12-15", "value": 36, "unit": "% WBC"}, {"measurement": "Lymphocytes", "setting": "[1]; mouse 4, light 108 then 54 J/cm^2, normal 65-85", "value": 62, "unit": "% WBC"}, {"measurement": "Monocytes", "setting": "[1]; mouse 5, light 135 then 27 J/cm^2", "value": 1, "unit": "% WBC"}, {"measurement": "Granulocytes", "setting": "[1]; mouse 5, light 135 then 27 J/cm^2, normal 12-15", "value": 7, "unit": "% WBC"}, {"measurement": "Lymphocytes", "setting": "[1]; mouse 5, light 135 then 27 J/cm^2, normal 65-85", "value": 92, "unit": "% WBC"}, {"measurement": "gross morphology and weights of internal organs", "setting": "[2]; 2 weeks after double treatment, liver, spleen, kidneys", "value": "normal"}, {"measurement": "toxicity (gross examination of liver, spleen, kidneys; blood parameters)", "setting": "[2]; 2 weeks post-treatment", "value": "no toxicity was detected"}, {"measurement": "Kidneys weight", "setting": "[2]; [6]", "value": "0.172 g and 0.343 g and 0.380 g and 0.396 g and 0.310 g"}, {"measurement": "Liver weight", "setting": "[2]; [6]", "value": "1.105 g and 1.190 g and 1.208 g and 1.348 g and 0.958 g"}, {"measurement": "Spleen weight", "setting": "[2]; [6]", "value": "0.077 g and 0.106 g and 0.094 g and 0.108 g and 0.078 g"}, {"measurement": "Total Body Weight", "setting": "[2]; [6]", "value": "22 g and 23 g and 24 g and 25 g and 21 g"}, {"measurement": "signs of skin photosensitization", "setting": "[3]; 0.9 mg/kg, red light 1 hour after injection, 27 to 135 J/cm^2, two weeks", "value": "did not show any signs of skin photosensitization"}, {"measurement": "gross changes in skin", "setting": "[3]; Balb/c, i.e. 15 then 20 μg BPD/mouse (DMSO stock), light 27-135 J/cm^2, immediately post-exposure and two weeks", "value": "No gross changes were observed in mice skin"}, {"measurement": "effect of the same light dose at lower plasma levels", "setting": "[3]; as demonstrated in Example 1", "value": "apparently harmless"}, {"measurement": "behaviour / discomfort under the light", "setting": "[3]; both days of treatment, 27-135 J/cm^2, except occasional scratching", "value": "behaved normally under the light, without any signs of discomfort"}, {"measurement": "behavioral changes", "setting": "[3]; two weeks after double treatment", "value": "No behavioral changes were observed"}, {"measurement": "red blood cell viability", "setting": "[4]", "value": "appeared viable"}, {"measurement": "Surviving cells in blood", "setting": "[5]; Dark control", "value": "234 L1210 cells/2 ml blood/mouse"}, {"measurement": "Surviving cells in blood", "setting": "[5]; Light exposed (162 J/cm^2)", "value": "21 L1210 cells/2 ml blood/mouse"}, {"measurement": "destruction of BPD pre-loaded tumor cells", "setting": "[5]; whole body exposure to red light (L1210 and P815 examples)", "value": "a large number of BPD pre-loaded tumor cells were destroyed"}]}
